This note sets out measurements from patent US20220233549A1, “METHOD FOR ALPHAVIRUS INHIBITION” (priority 2019, published 2022).

In general, EC50 refers to the concentration at which the effect is half-maximal. The low end stands for higher potency in that assay, the high end for lower potency in that assay.

Format in all cases: cell-based
For test [1], the system named is CHIKV 181/clone25. The test can be described thus: CHIKV cytopathic effect (CPE) protection assay in Vero cells. The conditions noted are these: Chikungunya virus; CHIKV 181/clone25, Vero cells, MOI=0.01, 48 hrs, protection from CPE (crystal violet, absorbance 595nm). On the technique in general: Damage to the host cells serves as the signal in cytopathic effect assays.

Test [2] deals with ONNV (SG-650). The test can be described thus: Activity of Example 1 against other alphaviruses: ONNV.
In test [3] the test system is MAYV. The experiment in a line: Activity of Example 1 against other alphaviruses: MAYV.
The subject of test [4] is SINV (TR-339). The experiment in a line: organism not typed.
Test [5] has as its system VEEV (ZPC). The experiment in a line: microbe, parasite or virus in culture. The conditions noted are these: Venezuelan equine encephalitis virus.
The subject of test [6] is Influenza. The test can be described thus: Activity of Example 1 against non-alphaviruses: Influenza.
Test [7] has as its system Dengue. The test can be described thus: Activity of Example 1 against non-alphaviruses: Dengue. The note with it: Dengue virus.
Test [8] has as its system Vaccinia. The experiment in a line: Activity of Example 1 against non-alphaviruses: Vaccinia. The note with it: Orthopoxvirus vaccinia.
Test [9] deals with BK Polyomavirus. The test can be described thus: Activity of Example 1 against non-alphaviruses: BK Polyomavirus. The note with it: Betapolyomavirus hominis.

In the case of `CN1C(=O)C(CC(=O)NCC2CCCCC2)Sc2ncccc21` (centres unmarked) [Example 1, N-(cyclohexylmethyl)-2-(1-methyl-2-oxo-2,3-dihydro-1H-pyrido[2,3-b][1,4]thiazin-3-yl)acetamide], the EC50 is less than 10 µM in test [1]; less than 10 µM in test [2]; 10 to 49.9 µM in test [3]; greater than 100 µM in test [4]; less than 10 µM in [5]; greater than 100 µM in test [6]. For the same compound, the EC50 in test [7], in test [8] and in test [9] was greater than 100 µM throughout.
Take `CCCOC1(CNC(=O)CC2Sc3ncccc3NC2=O)CCCCC1` (centres unmarked) [Example 81, 2-(2-oxo-2,3-dihydro-1H-pyrido[2,3-b][1,4]thiazin-3-yl)-N-((1-propoxycyclohexyl)methyl)ace-tamide]: in test [1], the EC50 was in the range of 10 to 49.9 µM.
In [1], `CN1C(=O)C(CC(=O)NCC2CCCO2)Sc2ncccc21` (centres unmarked) [Example 9, 2-(1-methyl-2-oxo-2,3-dihydro-1H-pyrido[2,3-b][1,4]thiazin-3-yl)-N-((tetrahydrofuran-2-yl)methyl)acetamide] showed a half-maximal effective concentration (EC50) greater than 100 µM.
On to `O=C(CC1Sc2ncccc2NC1=O)NCC1CC=CCC1` (centres unmarked) [Example 86, N-(cyclohex-3-en-1-ylmethyl)-2-(2-oxo-2,3-dihydro-1H-pyrido[2,3-b][1,4]thiazin-3-yl)acetamide], for which, in test [1], the half-maximal effective concentration (EC50) was less than 10 µM.
As to `CC(NC(=O)CC1Sc2ncccc2N(C)C1=O)c1ccccc1` (centres unmarked) [Example 17, 2-(1-methyl-2-oxo-2,3-dihydro-1H-pyrido[2,3-b][1,4]thiazin-3-yl)-N-(1-phenylethyl)acetamide], the EC50 in [1] is greater than 100 µM.
In turn, `CCCCCNC(=O)CC1Sc2ncccc2NC1=O` (centres unmarked) [Example 71, 2-(2-oxo-2,3-dihydro-1H-pyrido[2,3-b][1,4]thiazin-3-yl)-N-pentylacetamide] registered a concentration giving a half-maximal response (EC50) in [1] of 10 to 49.9 µM.
With `O=C(CC1Sc2ncccc2NC1=O)NCC1CCCC1` (centres unmarked) [Example 63, N-(cyclopentylmethyl)-2-(2-oxo-2,3-dihydro-1H-pyrido[2,3-b][1,4]thiazin-3-yl)acetamide], the EC50 in test [1] was less than 10 µM.
In test [1], `COC1(CNC(=O)CC2Sc3ncccc3NC2=O)CCCCC1` (centres unmarked) [Example 79, N-((1-methoxycyclohexyl)methyl)-2-(2-oxo-2,3-dihydro-1H-pyrido[2,3-b][1,4]thiazin-3-yl)acetamide] yielded an EC50 of less than 10 µM.
Turning to `O=C(CC1Sc2ncccc2NC1=O)NCCc1ccc(F)cc1` (centres unmarked) [Example 57, N-(4-fluorophenethyl)-2-(2-oxo-2,3-dihydro-1H-pyrido[2,3-b][1,4]thiazin-3-yl)acetamide], in test [1], the EC50 is 10 to 49.9 µM.
Regarding `CN1C(=O)C(CC(=O)NC2=CCCCC2)Sc2ncccc21` (centres unmarked) [Example 20, N-(cyclohex-1-en-1-yl)-2-(1-methyl-2-oxo-2,3-dihydro-1H-pyrido[2,3-b][1,4]thiazin-3-yl)acetamide], the EC50 in test [1] lay within 10 to 49.9 µM.
`Cc1ccc(CNC(=O)CC2Sc3ncccc3N(C)C2=O)cc1` (centres unmarked) [Example 26, 2-(1-methyl-2-oxo-2,3-dihydro-1H-pyrido[2,3-b][1,4]thiazin-3-yl)-N-(4-methylbenzyl)acetamide] showed a 50% effective concentration (EC50) in test [1] of 10 to 49.9 µM.
On to `O=C(CC1Nc2ncccc2NC1=O)NCC1CCCCC1` (centres unmarked) [Example 65, N-(cyclohexylmethyl)-2-(2-oxo-1,2,3,4-tetrahydropyrido[2,3-b]pyrazin-3-yl)acetamide], for which the EC50 in test [1] is greater than 100 µM.
`O=C(CC1Sc2ncccc2NC1=O)NCc1ccc(Cl)cc1` (centres unmarked) [Example 53, N-(4-chlorobenzyl)-2-(2-oxo-2,3-dihydro-1H-pyrido[2,3-b][1,4]thiazin-3-yl)acetamide] registered a half-maximal effective concentration (EC50) in test [1] of 10 to 49.9 µM.
Take `CCN1C(=O)C(CC(=O)N2CCCCCC2)Sc2ncccc21` (centres unmarked) [Example 45, 3-(2-(azepan-1-yl)-2-oxoethyl)-1-ethyl-1H-pyrido[2,3-b][1,4]thiazin-2(3H)-one]: the EC50 in test [1] was greater than 100 µM.
On to `CC1(CNC(=O)CC2Sc3ncccc3NC2=O)CCCCC1` (centres unmarked) [Example 66, N-((1-methylcyclohexyl)methyl)-2-(2-oxo-2,3-dihydro-1H-pyrido[2,3-b][1,4]thiazin-3-yl)acetamide], for which, in test [1], the EC50 is less than 10 µM.
Compound `CN(C)CCCNC(=O)CC1Sc2ncccc2N(C)C1=O` (centres unmarked) [Example 28, N-(3-(dimethylamino)propyl)-2-(1-methyl-2-oxo-2,3-dihydro-1H-pyrido[2,3-b][1,4]thiazin-3-yl)acetamide] showed an EC50 in test [1] greater than 100 µM.
`O=C(CC1Sc2ncccc2NC1=O)NCc1cc(F)cc(F)c1` (centres unmarked) [Example 52, N-(3,5-difluorobenzyl)-2-(2-oxo-2,3-dihydro-1H-pyrido[2,3-b][1,4]thiazin-3-yl)acetamide]: the concentration giving a half-maximal response (EC50) in test [1] is greater than 100 µM.
The compound `CC1(C)CCC(CNC(=O)CC2Sc3ncccc3NC2=O)CC1` (centres unmarked) [Example 69, N-((4,4-dimethylcyclohexyl)methyl)-2-(2-oxo-2,3-dihydro-1H-pyrido[2,3-b][1,4]thiazin-3-yl)acetamide] yielded an EC50 in test [1] of 10 to 49.9 µM.
As to `CCN1C(=O)C(CC(=O)NCc2ccccc2)Sc2ncccc21` (centres unmarked) [Example 43, N-benzyl-2-(1-ethyl-2-oxo-2,3-dihydro-1H-pyrido[2,3-b][1,4]thiazin-3-yl)acetamide], the EC50 in test [1] was greater than 100 µM.
On the same count and under the same terms, the value for `CC1CCCCN1CCNC(=O)CC1Sc2ncccc2N(C)C1=O` (centres unmarked) [Example 40, 2-(1-methyl-2-oxo-2,3-dihydro-1H-pyrido[2,3-b][1,4]thiazin-3-yl)-N-(2-(2-methylpiperidin-1-yl)ethyl)acetamide] was greater than 100 µM; that for `O=C(CC1CCCCC1)NCC1Sc2ncccc2NC1=O` (centres unmarked) [Example 73, 2-cyclohexyl-N-((2-oxo-2,3-dihydro-1H-pyrido[2,3-b][1,4]thiazin-3-yl)methyl)acetamide] was 10 to 49.9 µM.
